Data reported in ChEMBL document CHEMBL2074210, “A novel human organic anion transporting polypeptide localized to the basolateral hepatocyte membrane” (Am J Physiol Gastrointest Liver Physiol, 2000).

Assays:
Assay type in all cases: functional, cell-based
[1] = target: T1, OATP-C (OATP1B1, SLCO1B1) (Homo sapiens, UniProt Q9Y6L6); test: TP_TRANSPORTER: inhibition of E217betaG uptake (DIDS: 50 uM, E217betaG: 1 uM) in OATP-C-expressing HEK293 cells; design: scale not given: the % may be the effect or the level left; details: probe E217betaG (estradiol 17beta-glucuronide), read-out: Activity
T1 sequence (Q9Y6L6 whole entry): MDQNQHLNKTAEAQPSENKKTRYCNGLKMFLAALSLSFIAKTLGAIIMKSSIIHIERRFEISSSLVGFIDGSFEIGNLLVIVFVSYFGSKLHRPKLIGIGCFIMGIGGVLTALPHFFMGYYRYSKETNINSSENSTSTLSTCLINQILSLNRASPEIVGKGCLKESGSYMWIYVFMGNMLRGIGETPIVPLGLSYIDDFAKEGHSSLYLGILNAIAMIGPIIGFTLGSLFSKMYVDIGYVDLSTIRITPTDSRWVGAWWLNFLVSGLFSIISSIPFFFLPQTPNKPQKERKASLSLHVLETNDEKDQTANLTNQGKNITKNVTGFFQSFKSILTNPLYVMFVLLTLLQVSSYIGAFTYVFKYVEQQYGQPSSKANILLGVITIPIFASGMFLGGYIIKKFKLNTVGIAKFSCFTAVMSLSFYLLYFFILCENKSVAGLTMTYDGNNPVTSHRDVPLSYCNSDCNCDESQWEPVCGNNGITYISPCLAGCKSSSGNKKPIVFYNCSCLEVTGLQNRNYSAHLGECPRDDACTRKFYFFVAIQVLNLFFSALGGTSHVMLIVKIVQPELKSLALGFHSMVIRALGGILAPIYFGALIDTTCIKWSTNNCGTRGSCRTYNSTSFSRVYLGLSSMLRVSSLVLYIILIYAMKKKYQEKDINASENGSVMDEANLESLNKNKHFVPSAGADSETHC

[2] = target: T2, Solute carrier organic anion transporter family member 1B1 (Homo sapiens, UniProt Q9Y6L6); test: (§1) TP_TRANSPORTER: uptake in OATP-C-expressing HEK293 cells
T2 sequence (Q9Y6L6 whole entry): T1 sequence (Q9Y6L6 whole entry)

[3] = target: T2, Solute carrier organic anion transporter family member 1B1; test: TP_TRANSPORTER: inhibition of E217betaG uptake in OATP-C-expressing HEK293 cells
[4] = substrate: C[C@]12CC[C@@H]3c4ccc(O)cc4CC[C@H]3[C@@H]1CC[C@@H]2O[C@@H]1O[C@H](C(=O)O)[C@@H](O)[C@H](O)[C@H]1O; test: as §1

`O=S(=O)(O)c1cc(N=C=S)ccc1/C=C/c1ccc(NC=S)cc1S(=O)(=O)O` gave an activity at 50 µM [1] of 6%.

For `C=CC1=C(C)/C(=C/c2[nH]c(Cc3[nH]c(/C=C4\NC(=O)C(C)=C4C=C)c(C)c3CCC(=O)O[C@@H]3OC(C(=O)O)[C@@H](O)C(O)C3O)c(CCC(=O)O)c2C)NC1=O` (some centres undefined) [BILIRUBIN MONOGLUCURONIDE], the Activity [2] was “substrate [+]”.

With `O=C1OC(c2ccc(O)c(S(=O)(=O)O)c2)(c2ccc(O)c(S(=O)(=O)O)c2)c2c(Br)c(Br)c(Br)c(Br)c21` [SULFOBROMOPHTHALEIN SODIUM] the Ki [3] was 44 nM.

B1: Solute carrier organic anion transporter family member 1B1 (Homo sapiens) (protein)
chain: T1 sequence (Q9Y6L6 whole entry)
For B1, the Km [4] was 8.2 µM.
